From US20260258031A1, “CRYSTALLINE FORMS OF AN ESTROGEN RECEPTOR ANTAGONIST” (Olema Pharmaceuticals, Inc., priority 2022, published 2026)
“And” between values parts separate entries of the source, which are not always exact repeats. Identical values can stand only once.

Experiments:
[1] = co-former acid of salt screen; cited from earlier work
[2] = Stability in oven at 60° C. for two weeks (HPLC purity, XRPD); assay type: physicochemical; conditions: for HPLC Purity (%) 60° C.: after two weeks at 60° C.; for HPLC Purity (%) Starting: before storage; for XRPD change after storage / Stability relative to Amorphous Compound 1: two weeks at 60° C.; for HPLC Purity (%) Degradation: two weeks at 60° C. versus starting
Experimental: Amorphous Compound 1, Compound 1 Fumarate Form E, and Compound 1 Fumarate Form A Anhydrate were placed in an oven at 60° C. for two weeks to evaluate their stability.

[3] = Dynamic vapor sorption (DVS), hygroscopicity; assay type: physicochemical; conditions: for Hygroscopicity (%), water uptake: 25° C./80% RH
Experimental: DVS was performed using Intrinsic DVS ([…], UK). About 30-50 mg of sample was placed in a sample basked and hung in the measuring chamber. For an isotherm test, the chamber temperature was maintained by a water bath at a constant 25±1° C. The sample was tested at a targeted RH from 0 to 90% full cycle in step mode. The analysis was performed in 10% RH increments. Time duration at each RH was set as 60 min so that the sample could reach equilibrium with the chamber environment. Data were collected in 20 s increments.

[4] = Solubility in solvents, dynamic method; assay type: physicochemical; conditions: for solubility at 15 min: organic solvent or mixture, thermodynamic from solid, dynamic method
Experimental: […] Solubility was measured by the dynamic method and gravimetric method.
Dynamic method: Under the condition of a certain amount of solute and certain temperature, solvent was gradually added with stirring for 15 min to reach equilibrium. When solute is completely dissolved, amount of solvent was recorded and the solubility calculated.

[5] = Competitive slurry experiments Form E / Form A Anhydrate (XRPD); assay type: physicochemical; conditions: 25° C. or 40° C.
Experimental: Competitive slurry experiments were performed with Compound 1 Fumarate Form E and Compound 1 Fumarate Form A Anhydrate, as follows:
Experiment #1: Compound 1 Fumarate Form E (100 mg), Compound 1 Fumarate Form A Anhydrate (100 mg), and isopropanol (2 mL) were added into two 8-mL vials and mixed well in a shaker at 25° C. and 40° C., respectively. Samples for analysis were taken at 24 h and 72 h.
Experiment #2: Compound 1 Fumarate Form E (100 mg), Compound 1 Fumarate Form A Anhydrate (100 mg), and water (2 mL) were added into two 8-mL vials and mixed well in a shaker at 25° C. and 40° C., respectively. Samples for analysis were taken at 24 h and 72 h.
Experiment #3: Compound 1 Fumarate Form E (100 mg), Compound 1 Fumarate Form A Anhydrate (100 mg), and ethyl acetate (2 mL) were added into two 8-mL vials and mixed well in a shaker at 25° C. and 40° C., respectively. Samples for analysis were taken at 24 h and 72 h.

[6] = Solubility, gravimetric method; assay type: physicochemical; conditions: H2O, 25° C.; for solubility: gravimetric method
Experimental: Solubility studies of Compound 1 and Compound 1 Fumarate in different solvents at 25° C. were performed. Solubility was measured by the dynamic method and gravimetric method.
Gravimetric method: Excess solids and a certain amount of solvent were added 8 mL vials, stirred for 24 hours, and filtered.

[7] = Kinetic solubility of Fumarate Form A Ethyl Acetate Solvate, solvent aliquot addition; assay type: physicochemical; conditions: thermodynamic from solid, ambient temperature
Experimental: The screen consisted primarily of long term slurry experiments. To help design screen experiments, kinetic solubilities of Fumarate Form A Ethyl Acetate Solvate were estimated. The estimation was done on a 3-11 mg scale using a solvent aliquot addition method, and dissolution was judged by visual observation. Solubilities are estimated at ambient temperature and reported to the nearest mg/mL; if complete dissolution was achieved by one aliquot addition, solubilities were reported as “>”;

[8] = Bulk density (untapped, graduated cylinder); assay type: physicochemical
Experimental: Bulk density of Compound 1 Fumarate Form E was measured by gently introducing a known sample mass into a graduated cylinder (50 mL), leveling the powder without compacting it, and recording the apparent untapped volume to the nearest graduated unit.

O=C1CC[C@@H](C(=O)O)N1 [(−)-L-Pyroglutamic acid]
pKa [1]: 3.32

CCCN1CC(Oc2ccc([C@@H]3c4[nH]c5ccccc5c4C[C@@H](C)N3CC(C)(C)F)cc2)C1 [Amorphous Compound 1, (1R,3R)-2-(2-fluoro-2-methylpropyl)-3-methyl-1-(4-((1-propylazetidin-3-yl)oxy)phenyl)-2,3,4,9-tetrahydro-1H-pyrido[3,4-b]indole]
HPLC Purity (%) 60° C. [2]: 98.94% | HPLC Purity (%) Starting [2]: 99.23% | XRPD change after storage [2]: No change | HPLC Purity (%) Degradation [2]: −0.29% | Hygroscopicity (%), water uptake [3]: hygroscopic (0.463) % | Form Change after DVS? [3]: No | Solubility in isopropanol (in words) ([4]; 25° C.): high solubility

O=C(O)c1cc2ccccc2c(Cc2c(O)c(C(=O)O)cc3ccccc23)c1O [Pamoic Acid]
pKa [1]: 2.51

O=C(O)CO [Glycolic Acid]
pKa [1]: 3.28

CCCN1CC(Oc2ccc([C@@H]3c4[nH]c5ccccc5c4C[C@@H](C)N3CC(C)(C)F)cc2)C1.O=C(O)/C=C/C(=O)O [Compound 1 Fumarate Form A Anhydrate]
Outcome of competitive slurry (XRPD) ([5]; ethyl acetate, after 72 h): a mixture of Compound 1 Fumarate Form E and Compound 1 Fumarate Form A Anhydrate remained | Outcome of competitive slurry (XRPD) ([5]; isopropanol, after 24 h): completely transformed into Compound 1 Fumarate Form E | Outcome of competitive slurry (XRPD) ([5]; water, after 72 h): a mixture of Compound 1 Fumarate Form E and Compound 1 Fumarate Form A Anhydrate remained | HPLC Purity (%) 60° C. [2]: 99.54% | HPLC Purity (%) Starting [2]: 99.58% | Stability relative to Amorphous Compound 1 [2]: improved stability | XRPD change after storage [2]: No change | HPLC Purity (%) Degradation [2]: −0.04% | Hygroscopicity (%), water uptake [3]: hygroscopic (0.108) % | Form Change after DVS? [3]: No | solubility [6]: 6.5 mg/mL

CCCN1CC(Oc2ccc([C@@H]3c4[nH]c5ccccc5c4C[C@@H](C)N3CC(C)(C)F)cc2)C1.O=C(O)/C=C/C(=O)O
solubility ([7]; aqueous with cosolvent or surfactant or cyclodextrin, IPA/water (50/50)): > 124000 µg/mL | solubility ([7]; organic solvent or mixture, 2-BuOH): 17000 µg/mL | solubility ([7]; organic solvent or mixture, 2-MeTHF): 32000 µg/mL | solubility ([7]; organic solvent or mixture, ACN, re-precipitated after first aliquot): < 2000 µg/mL | solubility ([7]; organic solvent or mixture, Anisole): < 1000 µg/mL | solubility ([7]; organic solvent or mixture, DCE): < 9000 µg/mL | solubility ([7]; organic solvent or mixture, DCE/EtOH (96/4)): ≥ 8000 µg/mL | solubility ([7]; organic solvent or mixture, Dioxane): > 104000 µg/mL | solubility ([7]; organic solvent or mixture, IPA): 20000 µg/mL | solubility ([7]; organic solvent or mixture, MIBK): 4000 µg/mL | solubility ([7]; organic solvent or mixture, MTBE): 2000 µg/mL | solubility ([7]; organic solvent or mixture, TFE): > 100000 µg/mL | solubility ([7]; organic solvent or mixture, t-BuOAc, re-precipitated after first aliquot): 1000 µg/mL

CCCN1CC(Oc2ccc([C@@H]3c4[nH]c5ccccc5c4C[C@@H](C)N3CC(C)(C)F)cc2)C1.O=C(O)/C=C/C(=O)O [Compound 1 Fumarate Form E]
Outcome of competitive slurry (XRPD) ([5]; ethyl acetate, after 72 h): a mixture of Compound 1 Fumarate Form E and Compound 1 Fumarate Form A Anhydrate remained | Outcome of competitive slurry (XRPD) ([5]; isopropanol, after 24 h): more stable than Form A Anhydrate | Outcome of competitive slurry (XRPD) ([5]; water, after 72 h): a mixture of Compound 1 Fumarate Form E and Compound 1 Fumarate Form A Anhydrate remained | HPLC Purity (%) 60° C. [2]: 99.50% | HPLC Purity (%) Starting [2]: 99.54% | Stability relative to Amorphous Compound 1 [2]: improved stability | XRPD change after storage [2]: No change | HPLC Purity (%) Degradation [2]: −0.05% | Hygroscopicity by DVS (in words) ([3]; 25° C., 0 to 90% RH cycle): not hygroscopic | Solubility compared with Compound 1 Fumarate Form A Anhydrate [6]: much lower solubility | solubility [6]: 1.0 mg/mL | Bulk Density, Average ([8]; average of three runs): 0.1239 g/mL | Bulk Density ([8]; single runs 1-3, untapped): 0.1288 g/mL and 0.1233 g/mL and 0.1196 g/mL | Solubility in isopropanol (in words) ([4]; 25° C.): very low solubility | Change of solubility with increasing proportion of heptane ([4]; isopropanol/heptane, 25° C.): decreased significantly | solubility at 15 min ([4]; IPA, 0° C.): < 1000 µg/mL | solubility at 15 min ([4]; IPA, 25° C.): ~8460 µg/mL | solubility at 15 min ([4]; IPA/heptane (1/1), 25° C.): ~2350 µg/mL | solubility at 15 min ([4]; IPA/heptane (1/3), 25° C.): < 1000 µg/mL | solubility at 15 min ([4]; IPA/heptane (5/1), 25° C.): 5890 µg/mL | solubility at 15 min ([4]; IPA/heptane (5/3), 25° C.): ~3570 µg/mL

O=C(O)/C=C/C(=O)O [Fumaric acid]
Solubility in isopropanol (in words) ([4]; 25° C.): relatively low solubility
